# System: managed honeybee colonies
# Assay: Artificial diets with dried engineered yeast powder fed to managed honeybee colonies (APIDEA hives, three months)
# Format: in vivo
# Details: inferred from platform strain diet versus wild-type yeast diet
# Protocol: Yeast strains ST4842 (wild-type, containing ergosterol), ST11005 (platform strain engineered to produce tetrahymanol, containing ergosterol and tetrahymanol) and ST12178 (mixed sterol producing strain producing desired phytosterols and tetrahymanol) were cultivated by 5-L fed-batch fermentation as described above. At the end of fermentation, the yeast biomass was recovered from the culture by centrifugation (4000×g, 20 min) and washed with deionized water. The biomass was heat-inactivated and dried (60° C. for a minimum of 24 h). The dried material was ground to a fine powder and stored at −20° C. until further use.
# The yeast biomass was then incorporated at 20% w/w into a holidic diet designed to provide additional protein, lipid, sugar, vitamins and minerals. […]
# Honeybee colonies were maintained for three months in APIDEA hives (Styrofoam queen mating mini nucleus hives, (Paynes Southdown Bee Farms Ltd, West Sussex. UK) made up of one brood box with five frames and a top feeder with a hole for petty delivery. Hives were maintained within a closed glasshouse environment designed to negate bee escape. Hives were distributed across two rooms of the glasshouse, with varying orientation. Feeders with 30% w/v sugar solution and water were distributed inside the glasshouse and replenished as required. Regular temperature and humidity measurements were recorded on a datalogger. […]
compound,measurement,value
CC1(C)CCC[C@]2(C)[C@H]3CC[C@@H]4[C@@]5(C)CC[C@H](O)C(C)(C)[C@@H]5CC[C@@]4(C)[C@]3(C)CC[C@@H]12 [tetrahymanol],adverse effects in honeybee colonies,does not have adverse effects

# From patent US20260009064A1, “STEROL PRODUCTION IN YEAST” (APIX BIOSCIENCES, priority 2021, published 2026)
